Source: paper PMC10239048, “Synthesis and antioxidant, antimicrobial, and antiviral activity of some pyrazole-based heterocycles using a 2(3H)-furanone derivative” (Journal of the Iranian Chemical Society, 2023)
Converted amounts (≈) assume the structure as drawn.

What was measured:
[1] = Total antioxidant capacity (TAC), phosphomolybdenum method; settings: for Total antioxidant capacity: 500 µg/ml in methanol, 95 °C 90 min, 695 nm, means ± S.D., n = 3
[2] = system: avian influenza HPAI-H5N1 (AIV); design: species or system avian influenza virus HPAI-H5N1; settings: in vivo
Staphylococcus aureus [3] = experiment: Agar/disk diffusion inhibition zone, Staphylococcus aureus; format: cell-based; settings: diffusion method
Staphylococcus aureus [4] = experiment: MIC measurement by serial dilution, Staphylococcus aureus; format: cell-based; settings: 37 °C, 24–72 h, read-out: MIC Staph (Gram + ve)
Haemophilus (Gram –ve) [5] = experiment: Agar/disk diffusion inhibition zone, Haemophilus; format: cell-based; settings: diffusion method
Haemophilus (Gram –ve) [6] = experiment: MIC measurement by serial dilution, Haemophilus; format: cell-based; settings: read-out: MIC Haemophilus (Gram –ve)
[7] = system: avian influenza HPAI-H5N1 (AIV); design: species or system avian influenza virus HPAI-H5N1; settings: in vivo; remark: listed apart in the source
SPF chicks = experiment: Immune-boosting properties in vaccinated SPF chicks (humeral response); format: in vivo, chicken; settings: for Humeral response of vaccinated groups which received each tested compound separately: SPF chicks, vaccine-only group 7 log2; for Immune-boosting properties (in words): antibody titer in serum of vaccinated chicks
Candida albicans = experiment: Agar diffusion antifungal activity, Candida albicans; format: cell-based; settings: diffusion method
[8] = system: embryonated chicken SPF eggs; settings: in vivo

SMILES	melting point [°C]	Antioxidant activity (in words) [1]	Total antioxidant capacity [1] [mg AAE/g dry compound]	Antiviral activity against avian influenza virus (in words) [2]	Inhibition diameter Staph (Gram + ve) (Staphylococcus aureus [3]) [mm]	MIC (Staphylococcus aureus [4]) [µg/mL]	Inhibition diameter Haemophilus (Gram –ve) (Haemophilus (Gram –ve) [5]) [mm]	MIC (Haemophilus (Gram –ve) [6]) [µg/mL]	TI [7]	Humeral response of vaccinated groups which received each tested compound separately (SPF chicks) [log2]	Candida albicans (diameter of inhibition zone) (Candida albicans) [mm]	CC50 [8]	Virus titer with compound [2]	Immune-boosting properties (in words) (SPF chicks)
Cc1ccc(C2=CC(=Cc3c(C)nn(-c4ccccc4)c3Cl)C(=O)N2Cc2ccccc2)cc1	152 to 154													
CC(=O)NN1C(=O)C(=Cc2c(C)nn(-c3ccccc3)c2Cl)C=C1c1ccc(C)cc1 [Compound 12, N-(3-((5-Chloro-3-methyl-1-phenyl-1H-pyrazol-4-yl)methylene)-2-oxo-5-(p-tolyl)-2,3-dihydro-1H-pyrrol-1-yl)acetamide]	114 to 116	Moderate antioxidant activity	163.0 ± 1.75											
Cc1ccc(C(=O)CC(=Cc2c(C)nn(-c3ccccc3)c2Cl)C(=O)NNc2ccccc2)cc1 [Compound 10, 2-((5-Chloro-3-methyl-1-phenyl-1H-pyrazol-4-yl)methylene)-4-oxo-N'-phenyl-4-(p-tolyl)butanehydrazide]		highest potent levels of activity	336.0 ± 3.46	little antiviral activity	7	13	6	17 (≈ 35.1 µM)	55.5	6.9	7	500 > µl/ egg		
Cc1ccc(C(=O)CC(=Cc2c(C)nn(-c3ccccc3)c2Cl)C2=NCCN2)cc1 [Compound 11, 4-(5-Chloro-3-methyl-1-phenyl-1H-pyrazol-4-yl)-3-(4,5-dihydro-1H-imidazol-2-yl)-1-(p-tolyl)but-3-en-1-one]			280.0 ± 2.0	remarked antiviral activity	25	5	22	2 (≈ 4.77 µM)	83.3	7.1	24	500 > µl/ egg	10^1	special immune-boosting properties
Cc1ccc(C2=CC(=Cc3c(C)nn(-c4ccccc4)c3Cl)C(=O)N2)cc1 [Compound 4, 3-((5-Chloro-3-methyl-1-phenyl-1H-pyrazol-4-yl)methylene)-5-(p-tolyl)-1,3-dihydro-2H-pyrrol-2-one]			278.56 ± 4.61	remarked antiviral activity	25	5	22	6 (≈ 16 µM)	83.3	7.5	25	500 > µl/ egg	10^1	special immune-boosting properties
